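Here, GI50 denotes the concentration required for 50% inhibition of growth. Definition used: TGI = concentration required for complete inhibition of growth.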
Experiments:
Assay in all cases: NCI tumour cell line growth inhibition, 384-well format
T-47D breast = system: T-47D breast
IGROV1 ovarian = system: IGROV1 ovarian
SK-OV-3 ovarian = system: SK-OV-3 ovarian
KM12 colon = system: KM12 colon
NCI-H226 lung = system: NCI-H226 lung
CCRF-CEM leukemia = system: CCRF-CEM leukemia
A498 renal = system: A498 renal
MDA-MB-231 breast = system: MDA-MB-231 breast
SF-539 CNS = system: SF-539 CNS
ACHN renal = system: ACHN renal
COLO 205 colon = system: COLO 205 colon
SR leukemia = system: SR leukemia
RPMI-8226 leukemia = system: RPMI-8226 leukemia
HS 578T breast = system: HS 578T breast
BT-549 breast = system: BT-549 breast
SW-620 colon = system: SW-620 colon
OVCAR-4 ovarian = system: OVCAR-4 ovarian
SNB-19 CNS = system: SNB-19 CNS
UACC-62 melanoma = system: UACC-62 melanoma
HT29 colon = system: HT29 colon
SN12C renal = system: SN12C renal
MOLT-4 leukemia = system: MOLT-4 leukemia
MCF7 breast = system: MCF7 breast
MDA-MB-435 melanoma = system: MDA-MB-435 melanoma
TK-10 renal = system: TK-10 renal
NCI-H23 lung = system: NCI-H23 lung
MALME-3M melanoma = system: MALME-3M melanoma
NCI/ADR-RES ovarian = system: NCI/ADR-RES ovarian
OVCAR-8 ovarian = system: OVCAR-8 ovarian
M14 melanoma = system: M14 melanoma
NCI-H460 NSCLC = system: NCI-H460 NSCLC
LOX IMVI melanoma = system: LOX IMVI melanoma
786-0 renal = system: 786-0 renal
CAKI-1 renal = system: CAKI-1 renal
SK-MEL-28 melanoma = system: SK-MEL-28 melanoma
HCT-15 colon = system: HCT-15 colon
SF-268 CNS = system: SF-268 CNS
NCI-H522 lung = system: NCI-H522 lung
HL-60(TB) leukemia = system: HL-60(TB) leukemia
HOP-92 NSCLC = system: HOP-92 NSCLC
OVCAR-5 ovarian = system: OVCAR-5 ovarian
SF-295 CNS = system: SF-295 CNS
UACC-257 melanoma = system: UACC-257 melanoma
HCC-2998 colon = system: HCC-2998 colon
HOP-62 NSCLC = system: HOP-62 NSCLC
NCI-H322M lung = system: NCI-H322M lung
SNB-75 CNS = system: SNB-75 CNS
OVCAR-3 ovarian = system: OVCAR-3 ovarian
PC-3 prostate = system: PC-3 prostate
UO-31 renal = system: UO-31 renal
K-562 leukemia = system: K-562 leukemia
SK-MEL-5 melanoma = system: SK-MEL-5 melanoma
DU-145 prostate = system: DU-145 prostate
RXF 393 renal = system: RXF 393 renal
MDA-MB-468 breast = system: MDA-MB-468 breast
EKVX NSCLC = system: EKVX NSCLC

## CC(C)c1cnn2c(NCc3ccccc3)cc(NC[C@H]3CCNC[C@@H]3O)nc12
T-47D breast
  GI50: 404 nM
  TGI: 3740 nM
IGROV1 ovarian
  GI50: 332 nM
  TGI: 2870 nM
SK-OV-3 ovarian
  GI50: 360 nM
  TGI: 6890 nM
KM12 colon
  GI50: 128 nM
  TGI: 541 nM
NCI-H226 lung
  GI50: 193 nM
  TGI: 675 nM
CCRF-CEM leukemia
  GI50: 213 nM
  TGI: 380 nM
A498 renal
  GI50: 157 nM
  TGI: 599 nM
MDA-MB-231 breast
  GI50: 290 nM
  TGI: 1730 nM
SF-539 CNS
  GI50: 107 nM
  TGI: 345 nM
ACHN renal
  GI50: 782 nM
  TGI: 11200 nM
COLO 205 colon
  GI50: 133 nM
  TGI: 411 nM
SR leukemia
  GI50: 23.5 nM
  TGI: 103 nM
RPMI-8226 leukemia
  GI50: 16.9 nM
  TGI: 56.5 nM
HS 578T breast
  GI50: 214 nM
  TGI: 501 nM
BT-549 breast
  GI50: 241 nM
  TGI: 519 nM
SW-620 colon
  GI50: 167 nM
  TGI: 1660 nM
OVCAR-4 ovarian
  GI50: 154 nM
  TGI: 475 nM
SNB-19 CNS
  GI50: 410 nM
  TGI: 10500 nM
UACC-62 melanoma
  GI50: 57.8 nM
  TGI: 238 nM
HT29 colon
  GI50: 330 nM
  TGI: 10700 nM
SN12C renal
  GI50: 168 nM
  TGI: 841 nM
MOLT-4 leukemia
  GI50: 122 nM
  TGI: 267 nM
MCF7 breast
  GI50: 113 nM
  TGI: 474 nM
MDA-MB-435 melanoma
  GI50: 409 nM
  TGI: 1450 nM
TK-10 renal
  GI50: 2980 nM
  TGI: 14000 nM
NCI-H23 lung
  GI50: 167 nM
  TGI: 644 nM
MALME-3M melanoma
  GI50: 345 nM
  TGI: 1800 nM
NCI/ADR-RES ovarian
  GI50: 13800 nM
  TGI: 28900 nM
OVCAR-8 ovarian
  GI50: 249 nM
  TGI: 973 nM
M14 melanoma
  GI50: 292 nM
  TGI: 1190 nM
NCI-H460 NSCLC
  GI50: 22.6 nM
  TGI: 64.6 nM
LOX IMVI melanoma
  GI50: 84.5 nM
  TGI: 260 nM
786-0 renal
  GI50: 211 nM
  TGI: 1520 nM
CAKI-1 renal
  GI50: 317 nM
  TGI: 2820 nM
SK-MEL-28 melanoma
  GI50: 226 nM
  TGI: 1130 nM
HCT-15 colon
  GI50: 1300 nM
  TGI: 8560 nM
SF-268 CNS
  GI50: 173 nM
  TGI: 411 nM
NCI-H522 lung
  GI50: 164 nM
  TGI: 1680 nM
HL-60(TB) leukemia
  GI50: 156 nM
  TGI: 291 nM
HOP-92 NSCLC
  GI50: 382 nM
  TGI: 2340 nM
OVCAR-5 ovarian
  GI50: 246 nM
  TGI: 770 nM
SF-295 CNS
  GI50: 419 nM
  TGI: 3460 nM
UACC-257 melanoma
  GI50: 371 nM
  TGI: 1660 nM
HCC-2998 colon
  GI50: 223 nM
  TGI: 787 nM
HOP-62 NSCLC
  GI50: 131 nM
  TGI: 346 nM
NCI-H322M lung
  GI50: 291 nM
  TGI: 975 nM
SNB-75 CNS
  GI50: 789 nM
  TGI: 2040 nM
OVCAR-3 ovarian
  GI50: 105 nM
  TGI: 578 nM
PC-3 prostate
  GI50: 271 nM
  TGI: 985 nM
UO-31 renal
  GI50: 3870 nM
  TGI: 14800 nM
K-562 leukemia
  GI50: 389 nM
  TGI: 1960 nM
SK-MEL-5 melanoma
  GI50: 242 nM
  TGI: 655 nM
DU-145 prostate
  GI50: 111 nM
  TGI: 1780 nM
RXF 393 renal
  GI50: 251 nM
  TGI: 635 nM
MDA-MB-468 breast
  GI50: 328 nM
  TGI: 662 nM
EKVX NSCLC
  GI50: 467 nM
  TGI: 2530 nM

Reference: PubChem BioAssay (NCI)
